These results are taken from PMC6384991, “5-Arylideneimidazolones with Amine at Position 3 as Potential Antibiotic Adjuvants against Multidrug Resistant Bacteria” (Molecules, 2019).

Series [1] has as its system MRSA HEMSA 5. Nature of the series: Intrinsic antibacterial activity (MIC, microdilution) against MRSA HEMSA 5. As to conditions: for MIC: Staphylococcus aureus. It counts as cell-based, S. aureus. On the procedure:
(§1) Initially, 12 arylideneimidazolone derivatives were evaluated in vitro for their intrinsic antibacterial effect against two strains of S. aureus: the reference strain S. aureus ATCC 25923 and extremely-drug resistant (XDR) MRSA HEMSA 5 clinical isolate. This step of the study was necessary for: (i) elucidation whether molecules tested are devoid of antistaphylococcal activity and thus cannot become antimicrobial agents by themselves; and (ii) determination of the concentrations of compounds suitable for the further assay on their antibiotic adjuvant potency. In addition, the antistaphylococcal efficacy of oxacillin, which was paired with compounds tested, in the following assays was also assessed (Table 3).
Background: Dilution methods test growth across graded concentrations, often in twofold steps.

In series [2] the test system is S. aureus ATCC 25923. Description: Intrinsic antibacterial activity (MIC, microdilution) against reference S. aureus strain. The format is cell-based. The conditions noted are these: Staphylococcus aureus. On the procedure: as §1
The subject of series [3] is MRSA HEMSA 5. Nature of the series: MIC reduction assay: influence on oxacillin susceptibility in MRSA. As to conditions: MRSA HEMSA 5. It counts as cell-based, S. aureus. As to the method: The lack of a direct antibacterial activity of arylideneimidazolone derivatives tested allowed analyzing their anti-resistance potency in combination with the β-lactam antibiotic, oxacillin. […] The potential of compounds to become antibiotic adjuvants was evaluated by comparing the drug effectiveness in the presence and absence of compounds tested, thereby, by determining activity gain parameter A (Table 5). […] Slightly lower adjuvant-like activity was determined for the imidazolone derivatives 7 and 10 (A = 8–16). The efficacy of the remaining compounds was slightly less marked, however, also significant. Although compounds tested improved noticeably the antibacterial activity of oxacillin against MRSA clinical isolate, none of them restored the activity of the antibiotic (MIC < 2 µg/mL) against this highly resistant strain.

For series [4], the system named is AcrAB-TolC efflux pump in E. aerogenes Ea-289. Nature of the series: Real-time efflux (RTE) assay with 1,2'-dNA. As to conditions: compound 100 µM; Ea-289 strain.
The subject of series [5] is E. aerogenes Ea-294, Ea-298. Nature of the series: MIC (microdilution) against E. aerogenes strains devoid of AcrAB / TolC. As to conditions: Klebsiella aerogenes.
The subject of series [6] is E. aerogenes CM-64. Nature of the series: MIC (microdilution) against E. aerogenes CM-64 overexpressing AcrAB-TolC. As to conditions: Klebsiella aerogenes.
Series [7] has as its system E. aerogenes Ea-289. Nature of the series: MIC (microdilution) against E. aerogenes Ea-289 overexpressing AcrAB-TolC, porin-deficient. As to conditions: for MIC: Klebsiella aerogenes.
Setting [8] is: MRSA HEMSA 5, compound alone, MH II broth, read-out: MIC Value.
[9] abbreviates: ATCC25923, S. aureus ATCC 25923, compound alone, MH II broth, read-out: MIC Value.
[10] abbreviates: CM64, read-out: MIC (in brackets).
Setting [11] is: EA289, read-out: MIC (in brackets).

As a reminder, the MIC is the least concentration at which growth counts as inhibited. One may read the melting point as the temperature of the solid-liquid transition.

Like-named read-outs stand apart in the source and are kept apart here. Residues, ends and D or L forms follow the SMILES beside them. *: point of attachment. βNA = c1ccc2cc(N*)ccc2c1 A value given as a limit tells only on which side of the number the result lay.

`CN1CCN(CCCN2C(=O)/C(=C/c3ccc(Oc4ccccc4)cc3)N=C2N)CC1` [Compound 12, (Z)-5-(4-Phenoxybenzylidene)-2-amino-3-(3-(4-methylpiperazin-1-yl)propyl)-3H-imidazol-4(5H)-one] returned a melting point of 220 to 230 °C. In series [1] (MRSA, read-out: MIC Value), the minimal inhibitory concentration (MIC) lay within 250 to 500 µM. Also, in series [2] (ATCC25923, read-out: MIC Value), the MIC was found to be 250 µM. For the same compound, in series [3], the “reduction of MIC of oxacillin” value amounted to 8 fold. In addition, the “Inhibitory efficiency (IE) of 1,2'-dNA efflux” value (“Inhibitory efficiency (IE)” below) in series [4] was 64%. The compound further returned a minimal inhibitory concentration (MIC) in series [5] of 1000 µM. This compound also had an MIC in series [6] (CM64) of 2000 µM. This compound also came in with an MIC in series [7] (EA289) of 2000 µM.

As for `CN1CCN(CCCN2C(=O)/C(=C/c3cc4ccccc4c4ccccc34)N=C2N)CC1.Cl` [Compound 10, (Z)-2-Amino-3-(3-(4-methylpiperazin-1-yl)propyl)-5-(phenanthren-9-ylmethylene)-3H-imidazol-4(5H)-one hydrochloride], the melting point was in the range of 266 to 268 °C. Moreover, the minimum inhibitory concentration (MIC) in series [1] (setting [8]) is over 125 µM. The MIC in series [2] (setting [9]) is over 125 µM. For the same compound, the “Inhibitory efficiency (IE)” value in series [4] worked out at 60%. Besides, the MIC in series [5] worked out at 500 µM. Further, in series [6] (CM64), 1000 µM was the least that counted as inhibitory (MIC). This compound also returned an MIC in series [7] (EA289) of 1000 µM.

`O=C(N[C@H](CO)[C@H](O)c1ccc([N+](=O)[O-])cc1)C(Cl)Cl` [Chloramphenicol]: the MIC in series [5] worked out at 200 µM; in series [5] (read-out: MIC (in brackets)), 64 µg/mL; in series [6] (CM64) it was 1600 µM; in series [6] (setting [10]), 512 µg/mL; in series [7] (EA289) it was 3200 µM; in series [7] (setting [11]) it was 1020 µg/mL.

For `CN1CCN(CCCN2C(=O)/C(=C/c3ccc(Cl)cc3)N=C2N)CC1.Cl` [Compound 7, (Z)-5-(4-chlorobenzylidene)-2-amino-3-(3-(4-methylpiperazin-1-yl)propyl)-3H-imidazol-4(5H)-one hydrochloride], the minimal inhibitory concentration (MIC) is 1000 µM in series [1] (setting [8]) and 500 to 1000 µM in series [2] (setting [9]). Besides, in series [3], the “reduction of MIC of oxacillin” value is recorded as 16 fold.

On to `CC[C@H]1OC(=O)[C@H](C)[C@@H](O[C@H]2C[C@@](C)(OC)[C@@H](O)[C@H](C)O2)[C@H](C)[C@@H](O[C@@H]2O[C@H](C)C[C@H](N(C)C)[C@H]2O)[C@](C)(O)C[C@@H](C)C(=O)[C@H](C)[C@@H](O)[C@]1(C)O` [Erythromycin], for which the minimum inhibitory concentration (MIC) in series [5] stood at 5 µM; in series [5] (read-out: MIC (in brackets)), 4 µg/mL; in series [6] (CM64) it was 700 µM; in series [6] (setting [10]), 512 µg/mL; in series [7] (EA289) it was 350 µM; in series [7] (setting [11]), 256 µg/mL.

In the case of “(Z)-2-Amino-5-(biphen-4-ylmethylene)-3-(2-(4-methylpiperazin-1-yl)ethyl)-3H-imidazol-4(5H)-one hydrochloride [Compound 14]”, in series [1] (MRSA HEMSA 5, compound alone, MH II broth), the “MIC Value” stood at 250 µM. Moreover, the “reduction of MIC of oxacillin” value in series [3] turned out to be 8 fold.

`COc1ccc(/C=C2\N=C(N)N(CCCN3CCN(C)CC3)C2=O)cc1.Cl` [Compound 8, (Z)-5-(4-Methoxybenzylidene)-2-amino-3-(3-(4-methylpiperazin-1-yl)propyl)-3H-imidazol-4(5H)-one hydrochloride]: the MIC in series [1] (setting [8]) and in series [2] (setting [9]) was over 2000 µM each time. Moreover, in series [3], the “reduction of MIC of oxacillin” value was determined as 8 fold.

`CN1CCN(C2=N/C(=C\c3ccc(Cl)cc3)C(=O)N2)CC1` [Compound 6, (Z)-5-(4-chlorobenzylidene)-2-(4-methylpiperazin-1-yl)-3H-imidazol-4(5H)-one]: the minimal inhibitory concentration (MIC) in series [1] (MRSA, read-out: MIC Value) is 1000 µM; in series [2] (ATCC25923, read-out: MIC Value) it was 2000 µM. For the same compound, the “reduction of MIC of oxacillin” value in series [3] is recorded as 8 fold.

With `CN1CCN(CCCN2C(=O)/C(=C/c3c4ccccc4cc4ccccc34)N=C2N)CC1.Cl` [Compound 11, (Z)-2-Amino-5-(anthracen-10-ylmethylene)-3-(3-(4-methylpiperazin-1-yl)propyl)-3H-imidazol-4(5H)-one hydrochloride], the melting point was in the range of 246 to 248 °C. For the same compound, in series [1] (setting [8]), the MIC was found to be 500 µM. Also, the MIC in series [2] (setting [9]) turned out to be 500 µM. Moreover, the “Inhibitory efficiency (IE)” value in series [4] is given as 37%. The minimal inhibitory concentration (MIC) in series [5] turned out to be 500 µM. In series [6] (CM64), this compound registered an MIC of over 2000 µM. The compound also gave an MIC in series [7] (EA289) of over 2000 µM. In series [7] (efflux overexpressing vs deficient strains), the “increase of MIC for Ea-289 and CM-64 in comparison to Ea-298 and Ea-294” value is at least 4 fold.

Consider `Cl.NC1=N/C(=C\c2c3ccccc3cc3ccccc23)C(=O)N1CCCN1CCOCC1` [Compound 16, (Z)-2-Amino-5-(anthracen-10-ylmethylene)-3-(3-morpholinopropyl)-3H-imidazol-4(5H)-one hydrochloride], for which the melting point was in the range of 244 to 246 °C. Also, in series [1] (setting [8]), the minimal inhibitory concentration (MIC) was over 125 µM. Also, the minimal inhibitory concentration (MIC) in series [2] (setting [9]) was over 125 µM. In series [4], the “Inhibitory efficiency (IE)” value amounted to 44%. In series [5], this compound returned an MIC of 2000 µM. The compound also showed an MIC in series [6] (CM64) of over 2000 µM. Besides, the minimal inhibitory concentration (MIC) in series [7] (EA289) was over 2000 µM.

As for `CCn1cc(C(=O)O)c(=O)c2cc(F)c(N3CCNCC3)cc21` [Norfloxacin, norfloxacin], the minimal inhibitory concentration (MIC) in series [5] was 50 µM; in series [5] (read-out: MIC (in brackets)), 16 µg/mL; in series [6] (CM64), 6 µM; in series [6] (setting [10]), 2 µg/mL; in series [7] (EA289) it was 200 µM; in series [7] (setting [11]), 64 µg/mL.

Turning to `CN1CCN(CCCN2C(=O)/C(=C/c3ccc(Cl)cc3)N=C2N)CC1.Cl` (hydrate or solvate) [Compound 7, (Z)-5-(4-chlorobenzylidene)-2-amino-3-(3-(4-methylpiperazin-1-yl)propyl)-3H-imidazol-4(5H)-one hydrochloride], the melting point was determined as 294 °C.

As to `C[C@H]1c2cccc(O)c2C(=O)C2=C(O)[C@]3(O)C(=O)C(C(N)=O)=C(O)[C@@H](N(C)C)[C@@H]3[C@@H](O)[C@@H]21` [Doxycycline], the minimal inhibitory concentration (MIC) worked out at 5 µM in series [5]; 2 µg/mL in series [5] (read-out: MIC (in brackets)); 72 µM in series [6] (CM64); 32 µg/mL in series [6] (setting [10]); 18 µM in series [7] (EA289); 8 µg/mL in series [7] (setting [11]).

Consider `CN1CCN(CCCN2C(=O)/C(=C/c3cccc4ccccc34)N=C2N)CC1.Cl` [Compound 15, (Z)-2-Amino-3-(3-(4-methylpiperazin-1-yl)propyl)-5-(naphthalen-1-ylmethylene)-3H-imidazol-4(5H)-one hydrochloride], for which the melting point fell in the range of 187 to 191 °C. In series [1] (setting [8]), the minimum inhibitory concentration (MIC) was in the range of 1000 to 2000 µM. In series [2] (setting [9]), the MIC was 1000 µM.

Take `Cc1onc(-c2ccccc2)c1C(=O)N[C@@H]1C(=O)N2[C@@H]1SC(C)(C)[C@@H]2C(=O)O` [Oxacillin, reference compound]: the minimum inhibitory concentration (MIC) in series [1] (setting [8]) amounted to 1210 µM; in series [1] (MRSA HEMSA 5, read-out: MIC Value (in brackets)) it was 512 µg/mL; in series [2] (setting [9]), 0.59 µM; in series [2] (ATCC25923, S. aureus ATCC 25923, read-out: MIC Value (in brackets)), 0.25 µg/mL.

`COc1ccc(/C=C2\N=C(N)N(CCCN3CCN(C)CC3)C2=O)cc1.Cl` (hydrate or solvate) [Compound 8, (Z)-5-(4-Methoxybenzylidene)-2-amino-3-(3-(4-methylpiperazin-1-yl)propyl)-3H-imidazol-4(5H)-one hydrochloride]: the melting point turned out to be 262 °C.

Consider `NC(N)=NCCC[C@H](NC(=O)[C@@H](N)Cc1ccccc1)C(=O)Nc1ccc2ccccc2c1` [PaβN] (H-Phe-Arg-βNA), for which the minimum inhibitory concentration (MIC) in series [5] worked out at 125 µM; in series [6] (CM64) it was 500 µM; in series [7] (EA289) it was 500 µM.
